The text below walks through data of patent publication US8729048B2, “Methods and materials for assessing responsiveness to PARP inhibitors and platinating agents” (Mayo Foundation for Medical Education and Research, priority 2011, dated 2014).

Assay [1] relates to DNA-PKcs-reconstituted M059J cells. Put plainly: Clonogenic assay, M059J+DNA-PKcs. The conditions noted are these: BRCA1 shRNA. The format is cell-based. How it is done: FIG. 6. […] (A) BRCA1-deficient HCC1937 and BRCA1-reconstituted HCC1937/BRCA1 cells were continuously exposed to ABT-888 in the presence or absence of 125 nM DNA-PKi and assayed for clonogenic survival. Inset, Western blots of cell lysates from HCC1937 and HCC1937/BRCA1. (B) Western blots of M059J and reconstituted M059J+DNA-PKcs lines showing the restoration of DNA-PK expression and the shRNA-mediated knockdown of BRCA1. (C) Clonogenic survival of shRNA transfected M059J/M059J+DNA-PKcs lines treated with ABT-888 for 72 hours. (D) Clonogenic survival of ATM-deficient GM16666 or ATM-reconstituted GM16667 fibroblasts. Cells were exposed to ABT-888 for 48 hours in the presence or absence of 250 nM DNA-PKi, washed, and allowed to form colonies. Inset, Western blots of lysates from GM16666 and GM16667 fibroblasts. […] Results are representative of 3 independent experiments.
All siRNA oligonucleotides were purchased from Ambion, Inc. (Austin, Tex.). Sequences, with references, are provided below. PEO1 and PEO4 cells were transfected with 150 picomoles of siRNA using the HiPerfect lipid transfection reagent (Qiagen; Valencia, Calif.). […]
Colony formation assays were performed on siRNA-transfected PEO1 and PEO4 cells 48 hours after the second transfection. […] Colonies containing ≧50 cells were scored manually. […]

The subject of assay [2] is BRCA2-deficient PEO1 cells. Put plainly: Clonogenic assay, PEO1. The format is cell-based. The method, then: FIG. 5. NHEJ is a major contributor to PARP inhibitor effects in BRCA2-deficient cells. (A) Western blots showing knockdown of Ku80 in PEO1 and PEO4 cells. (B) Clonogenic survival of PEO1 and PEO4 cells from (A), which were treated with the indicated ABT-888 concentration for 72 hours, washed, and allowed to form colonies. (C) Western blots following treatment with siRNA targeting luciferase (control), Ku80, PARP1, or both Ku80 and PARP1. (D) Clonogenic viability of PEO 1 and PEO4 cells from (C). Following knockdown, cells were plated onto triplicate plates and allowed to form colonies. (E) Clonogenic survival of PEO1 cells following Artemis knockdown. After treatment with the indicated siRNA, plates were treated with indicated concentration of ABT-888 for 72 hours, washed, and allowed to form colonies. Inset, Western blots showing knockdown using luciferase (control) or Artemis siRNAs in PEO1 cells. (F) Clonogenic survival of PEO1 and PEO4 cells treated for 72 hours with ABT-888 in combination with diluent or 500 nM DNA-PKi. All results are reported as means of triplicate plates±SEM, and are representative of 3 independent experiments.
FIG. 13. DNA-PK inhibition diminishes the lethality of multiple PARP inhibitors in PEO1 cells. (A) Representative clonogenic plates after PEO1 cells were treated with ABT-888 (0, 5, or 20 μM) with or without 500 nM DNA-PKi. (B, C) Bar graphs comparing clonogenic survival of PEO1 cells exposed to two PARP inhibitors with or without 500 nM DNA-PKi. The PARP inhibitors used for these assays are ABT-888 (B) and AZD2281/olaparib (C). Results are reported as mean±SEM of triplicate plates.
FIG. 18. Artemis knockdown confers resistance to PARP inhibition and cisplatin in BRCA2-deficient/mutant cells. Clonogenic survival assays of PEO1 shRNA lines continuously exposed to ABT-888 (A) or cisplatin (B), or exposed to ionizing radiation (C). (D-F) Clonogenic survival assays of CAPAN1 shRNA lines exposed to ABT-888 (D), cisplatin (E), or exposed to ionizing radiation (F).
Colony formation assays were performed on siRNA-transfected PEO1 and PEO4 cells 48 hours after the second transfection. Cells were trypsinized and plated at 750 cells/plate in triplicate 60-mm dishes containing medium A, allowed to grow 10-14 days, and stained with Coomassie Brilliant Blue. Colonies containing ≧50 cells were scored manually. To assess methyl methanesulfonate (MMS) sensitivity, PEO1 or PEO4 cells were incubated for 48 hours after the second siRNA treatment, plated onto 60-mm dishes, allowed to adhere for 4 hours, exposed to the indicated concentration of MMS (Sigma-Aldrich) for 1 hour, washed with sterile RPMI 1640, and allowed to grow into colonies in medium A. For drug treatment, cells (without siRNA) were allowed to adhere for 4-6 hours, then treated with the indicated concentrations of ABT-888 and/or AZ12594248 for 72 hours. Following drug treatment, cells were washed with drug-free RPMI 1640, cultured for 10-14 days in medium A, and stained. For HCC1937 and HCC1937/BRCA1 cells, a similar procedure was used with several changes: 1000 cells were plated in medium B, and treatment was continuous for 16-20 days. M059J and M059J+DNA-PKcs were plated at 1000 cells per plate in medium C and treated for 48 hours. GM16666 and 16667 were plated at 1000 cells per plate in medium D and treated for 48 hours.

For `C[C@]1(c2nc3c(C(N)=O)cccc3[nH]2)CCCN1` [ABT-888], the “clonogenic sensitivity to ABT-888 after BRCA1 knockdown” value in assay [1] is reported as “sensitized”. Further, the clonogenic survival entry in assay [2] (PEO1 cells, 72 hours) is recorded as “decreased the clonogenic survival”. In addition, the “clonogenic survival with ABT-888 after siRNA depletion of Artemis” value in assay [2] (PEO1 cells, Artemis siRNA, 72 hours) is reported as “reversed the lethality”. The “clonogenic survival with ABT-888 after Ku80 knockdown” value in assay [2] (PEO1 cells, Ku80 siRNA, 72 hours) is listed as “markedly enhanced the survival”. In assay [2] (PEO1 shRNA lines, continuous exposure), the “clonogenic sensitivity after stable Artemis knockdown” value is “conferred resistance”.
Consider `CCN1CCN(CC(=O)Nc2ccc(-c3cccc4c(=O)cc(N5CCOCC5)oc34)c3sc4ccccc4c23)CC1` [AZ 12594248], for which the “effect of co-administration on AZD2281 clonogenic lethality” value in assay [2] (PEO1 cells, 500 nM DNA-PKi) was “diminished the effects”. Besides, the “effect of co-administration on ABT-888 clonogenic lethality” value in assay [2] (PEO1 cells, 500 nM DNA-PKi, 72 hours) is listed as “diminished the effects”.
